Assays:
[1] = tested on: T47D; assay: In vitro total growth inhibition against breast cancer […] cell lines was reported.; assay type: functional; conditions: Homo sapiens, read-out: Log TGI (converted)
[2] = tested on: MDA-MB-231; assay: In vitro growth inhibition against breast cancer MDA-MB-231/ATCC cell line was reported.; assay type: functional; conditions: Homo sapiens
[3] = tested on: NCI/ADR-RES; assay: In vitro growth inhibition against breast cancer NCI/ADR-RES cell line was reported.; assay type: functional; conditions: Homo sapiens
[4] = tested on: T47D; assay: In vitro growth inhibition against breast cancer […] cell line was reported.; assay type: functional; conditions: Homo sapiens
[5] = tested on: COLO 205; assay: Log of molar concentration leading to 50% cell death against colon cancer COLO 205 cell line was reported; assay type: functional; conditions: Homo sapiens, read-out: Log LC50 (the source's name) (converted)
[6] = tested on: COLO 205; assay: In vitro total growth inhibition against colon cancer COLO 205 cell lines was reported.; assay type: functional; conditions: Homo sapiens, read-out: Log TGI (converted)
[7] = tested on: HCC 2998; assay: In vitro growth inhibition against colon cancer HCC2998 cell line was reported.; assay type: functional; conditions: Homo sapiens
[8] = tested on: HCC 2998; assay: In vitro total growth inhibition against colon cancer HCC2998 cell lines was reported.; assay type: functional; conditions: Homo sapiens, read-out: Log TGI (converted)
[9] = tested on: HCT-116; assay: Log of molar concentration leading to 50% cell death against colon cancer HCT116 cell line was reported; assay type: functional; conditions: Homo sapiens, read-out: Log LC50 (the source's name) (converted)
[10] = tested on: HCT-116; assay: In vitro total growth inhibition against colon cancer HCT116 cell lines was reported.; assay type: functional; conditions: Homo sapiens, read-out: Log TGI (converted)
[11] = tested on: SF-295; assay: In vitro growth inhibition against CNS cancer SF-295 cell line was reported.; assay type: functional; conditions: Homo sapiens
[12] = tested on: SF-539; assay: Log of molar concentration leading to 50% cell death against CNS cancer SF-539 cell line was reported; assay type: functional; conditions: Homo sapiens, read-out: Log LC50 (the source's name) (converted)
[13] = tested on: SF-539; assay: In vitro total growth inhibition against CNS cancer SF-539 cell lines was reported.; assay type: functional; conditions: Homo sapiens, read-out: Log TGI (converted)
[14] = tested on: U-251; assay: In vitro growth inhibition against CNS cancer U251 cell line was reported.; assay type: functional; conditions: Homo sapiens
[15] = tested on: U-251; assay: In vitro total growth inhibition against CNS cancer U251 cell lines was reported.; assay type: functional; conditions: Homo sapiens, read-out: Log TGI (converted)
[16] = tested on: Tumor Cell line; assay: Log of molar concentration leading to 50% cell death was reported; assay type: functional; conditions: Homo sapiens, read-out: Log LC50 (the source's name) (converted)
[17] = tested on: K562; assay: In vitro growth inhibition against leukemia K-562 cell line was reported.; assay type: functional; conditions: Homo sapiens
[18] = tested on: K562; assay: In vitro total growth inhibition against leukemia K-562 cell lines was reported.; assay type: functional; conditions: Homo sapiens, read-out: Log TGI (converted)
[19] = tested on: RPMI-8226; assay: In vitro total growth inhibition against leukemia […] cell lines was reported.; assay type: functional; conditions: Homo sapiens, read-out: Log TGI (converted)
[20] = tested on: MOLT-4; assay: In vitro growth inhibition against leukemia MOLT-4 cell line was reported.; assay type: functional; conditions: Homo sapiens
[21] = tested on: M14; assay: In vitro growth inhibition against melanoma M14 cell line was reported.; assay type: functional; conditions: Homo sapiens
[22] = tested on: Malme-3M; assay: In vitro growth inhibition against melanoma MALME 3M cell line was reported.; assay type: functional; conditions: Homo sapiens
[23] = tested on: UACC-62; assay: In vitro growth inhibition against melanoma UACC-62 cell line was reported.; assay type: functional; conditions: Homo sapiens
[24] = tested on: EKVX; assay: Log of molar concentration leading to 50% cell death against non-small-cell lung cancer EKVX cell line was reported; assay type: functional; conditions: Homo sapiens, read-out: Log LC50 (the source's name) (converted)
[25] = tested on: HOP-62; assay: Log of molar concentration leading to 50% cell death against non-small-cell lung cancer HOP-62 cell line was reported; assay type: functional; conditions: Homo sapiens, read-out: Log LC50 (the source's name) (converted)
[26] = tested on: HOP-62; assay: In vitro total growth inhibition against non-small-cell lung cancer HOP-62 cell lines was reported.; assay type: functional; conditions: Homo sapiens, read-out: Log TGI (converted)
[27] = tested on: NCI-H23; assay: In vitro total growth inhibition against non-small-cell lung cancer NCI-H23 cell lines was reported.; assay type: functional; conditions: Homo sapiens, read-out: Log TGI (converted)
[28] = tested on: NCI-H322M; assay: Log of molar concentration leading to 50% cell death against non-small-cell lung cancer NCI-H322M cell line was reported; assay type: functional; conditions: Homo sapiens, read-out: Log LC50 (the source's name) (converted)
[29] = tested on: OVCAR-5; assay: In vitro growth inhibition against ovarian cancer OVCAR-5 cell line was reported.; assay type: functional; conditions: Homo sapiens
[30] = tested on: SK-OV-3; assay: In vitro growth inhibition against ovarian cancer SK-OV-3 cell line was reported.; assay type: functional; conditions: Homo sapiens
[31] = tested on: DU-145; assay: In vitro total growth inhibition against prostate cancer […] cell lines was reported.; assay type: functional; conditions: Homo sapiens, read-out: Log TGI (converted)
[32] = tested on: ACHN; assay: In vitro total growth inhibition against renal cancer ACHN cell lines was reported.; assay type: functional; conditions: Homo sapiens, read-out: Log TGI (converted)
[33] = tested on: CAKI-1; assay: In vitro growth inhibition against renal cancer CAKI-1 cell line was reported.; assay type: functional; conditions: Homo sapiens
[34] = tested on: RXF 393; assay: In vitro growth inhibition against renal cancer RXF 393 cell line was reported.; assay type: functional; conditions: Homo sapiens
[35] = tested on: 786-0; assay: In vitro total growth inhibition against renal cancer […] cell lines was reported.; assay type: functional; conditions: Homo sapiens, read-out: Log TGI (converted)
[36] = tested on: SN12C; assay: In vitro growth inhibition against renal cancer SN12C cell line was reported.; assay type: functional; conditions: Homo sapiens
[37] = tested on: TK-10; assay: In vitro total growth inhibition against renal cancer TK-10 cell lines was reported.; assay type: functional; conditions: Homo sapiens, read-out: Log TGI (converted)
[38] = tested on: RPMI-8226; assay: Log of molar concentration leading to 50% cell death against leukemia […] cell line was reported; assay type: functional; conditions: Homo sapiens, read-out: Log LC50 (the source's name) (converted)
[39] = tested on: HL-60; assay: Log of molar concentration leading to 50% cell death against leukemia HL-60(TB) cell line was reported; assay type: functional; conditions: Homo sapiens, read-out: Log LC50 (the source's name) (converted)
[40] = tested on: OVCAR-3; assay: Log of molar concentration leading to 50% cell death against ovarian cancer OVCAR-3 cell line was reported; assay type: functional; conditions: Homo sapiens, read-out: Log LC50 (the source's name) (converted)
[41] = tested on: OVCAR-4; assay: Log of molar concentration leading to 50% cell death against ovarian cancer OVCAR-4 cell line was reported; assay type: functional; conditions: Homo sapiens, read-out: Log LC50 (the source's name) (converted)
[42] = tested on: MCF7; assay: Log of molar concentration leading to 50% cell death against breast cancer MCF 7 cell line was reported; assay type: functional; conditions: Homo sapiens, read-out: Log LC50 (the source's name) (converted)
[43] = tested on: MDA-MB-231; assay: Log of molar concentration leading to 50% cell death against breast cancer MDA-MB-231/ATCC cell line was reported; assay type: functional; conditions: Homo sapiens, read-out: Log LC50 (the source's name) (converted)
[44] = tested on: M14; assay: Log of molar concentration leading to 50% cell death against melanoma M14 cell line was reported; assay type: functional; conditions: Homo sapiens, read-out: Log LC50 (the source's name) (converted)
[45] = tested on: M14; assay: In vitro total growth inhibition against melanoma M14 cell lines was reported.; assay type: functional; conditions: Homo sapiens, read-out: Log TGI (converted)
[46] = tested on: SK-MEL-5; assay: Log of molar concentration leading to 50% cell death against melanoma SK-MEL-5 cell line was reported; assay type: functional; conditions: Homo sapiens, read-out: Log LC50 (the source's name) (converted)
[47] = tested on: UACC-257; assay: Log of molar concentration leading to 50% cell death against melanoma UACC-257 cell line was reported; assay type: functional; conditions: Homo sapiens, read-out: Log LC50 (the source's name) (converted)
[48] = tested on: HOP-62; assay: In vitro growth inhibition against non-small-cell lung cancer HOP-62 cell line was reported.; assay type: functional; conditions: Homo sapiens
[49] = tested on: NCI-H522; assay: In vitro growth inhibition against non-small-cell lung cancer […] cell line was reported.; assay type: functional; conditions: Homo sapiens
[50] = tested on: NCI-H226; assay: In vitro growth inhibition against non-small-cell lung cancer NCI-H226 cell line was reported.; assay type: functional; conditions: Homo sapiens
[51] = tested on: NCI-H23; assay: In vitro growth inhibition against non-small-cell lung cancer NCI-H23 cell line was reported.; assay type: functional; conditions: Homo sapiens
[52] = tested on: OVCAR-3; assay: In vitro growth inhibition against ovarian cancer OVCAR-3 cell line was reported.; assay type: functional; conditions: Homo sapiens
[53] = tested on: IGROV-1; assay: In vitro growth inhibition against ovarian cancer IGROV1 cell line was reported.; assay type: functional; conditions: Homo sapiens
[54] = tested on: PC-3; assay: In vitro growth inhibition against prostate cancer PC-3 cell line was reported.; assay type: functional; conditions: Homo sapiens
[55] = tested on: ACHN; assay: In vitro growth inhibition against renal cancer ACHN cell line was reported.; assay type: functional; conditions: Homo sapiens
[56] = tested on: LOX IMVI; assay: In vitro growth inhibition against melanoma LOX IMVI cell line was reported.; assay type: functional; conditions: Homo sapiens
[57] = tested on: HT-29; assay: In vitro growth inhibition against colon cancer HT-29 cell line was reported.; assay type: functional; conditions: Homo sapiens
[58] = tested on: OVCAR-8; assay: Log of molar concentration leading to 50% cell death against ovarian cancer OVCAR-8 cell line was reported; assay type: functional; conditions: Homo sapiens, read-out: Log LC50 (the source's name) (converted)
[59] = tested on: MDA-MB-435; assay: In vitro total growth inhibition against breast cancer MDA-MB-435 cell lines was reported.; conditions: Homo sapiens, read-out: Log TGI (converted)

`Cc1ccc2cccc(NC(=O)c3cc4c(cc3Cl)Sc3nccn3S4(=O)=O)c2n1` gave a TGI [1] of 6.31 µM, a GI50 [2] of 11.5 µM and a GI50 [3] of 14.5 µM. The GI50 [4] was 2.4 µM, the CC50 [5] was 55 µM and the TGI [6] was 30.9 µM. For the same compound, the GI50 [7] was 1.82 µM, the TGI [8] was 4.68 µM and the CC50 [9] was 40.7 µM. The TGI [10] was 17 µM, the GI50 [11] was 11.5 µM and the CC50 [12] was 25.7 µM. The TGI [13] was 4.9 µM, the GI50 [14] was 3.47 µM and the TGI [15] was 14.5 µM. For the same compound, the CC50 [16] was 91.2 µM, the GI50 [17] was 4.07 µM and the TGI [18] was 38 µM. The TGI [19] was 3.8 µM, the GI50 [20] was 4.57 µM and the GI50 [21] was 7.24 µM. It also gave a GI50 [22] of 17 µM, a GI50 [23] of 14.5 µM and a CC50 [24] of 77.6 µM. For the same compound, the CC50 [25] was 39.8 µM, the TGI [26] was 16.2 µM and the TGI [27] was 56.2 µM. The CC50 [28] was 50.1 µM, the GI50 [29] was 16.2 µM and the GI50 [30] was 26.9 µM. It also gave a TGI [31] of 17.8 µM, a TGI [32] of 33.9 µM and a GI50 [33] of 23.4 µM. For the same compound, the GI50 [34] was 9.55 µM, the TGI [35] was 38 µM and the GI50 [36] was 12.3 µM. The TGI [37] was 20.9 µM, the CC50 [38] was 8.51 µM and the CC50 [39] was 3.8 µM. It also gave a CC50 [40] of 34.7 µM, a CC50 [41] of 61.7 µM and a CC50 [42] of 38.9 µM. The CC50 [43] was 49 µM, the CC50 [44] was 57.5 µM and the TGI [45] was 22.9 µM. For the same compound, the CC50 [46] was 50.1 µM, the CC50 [47] was 51.3 µM and the GI50 [48] was 0.049 µM. It also gave a GI50 [49] of 10.5 µM, a GI50 [50] of 15.1 µM and a GI50 [51] of 13.8 µM. It also gave a GI50 [52] of 2.95 µM, a GI50 [53] of 3.24 µM and a GI50 [54] of 2.69 µM. The GI50 [55] was 8.51 µM, the GI50 [56] was 5.01 µM and the GI50 [57] was 9.55 µM. It also gave a CC50 [58] of 53.7 µM and a TGI [59] of 22.9 µM.
